The assay has as its target MAGL (Homo sapiens (Human), UniProt Q99685). Briefly: In vitro competitive activity-based protein profiling (human prefrontal cortex membrane fractions, FP-Rh probe), MAGL band. As to conditions: read-out: MAGL IC50 (μM) (human); human prefrontal cortex membrane fractions.
MAGL, sequence (Q99685 whole entry): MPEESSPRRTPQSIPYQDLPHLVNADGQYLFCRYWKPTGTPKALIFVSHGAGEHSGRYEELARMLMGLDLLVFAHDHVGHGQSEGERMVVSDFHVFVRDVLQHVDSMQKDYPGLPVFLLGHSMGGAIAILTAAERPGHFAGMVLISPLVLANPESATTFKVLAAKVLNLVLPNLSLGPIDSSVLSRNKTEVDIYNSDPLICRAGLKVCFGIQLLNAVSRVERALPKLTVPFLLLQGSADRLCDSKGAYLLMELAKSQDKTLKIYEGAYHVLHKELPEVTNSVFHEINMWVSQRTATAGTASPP
Take `Cc1cn(C(=O)N2CCC3(CCN(Cc4cc(Cl)ccc4C(F)(F)F)C3)CC2)nc1C(=O)O` [Example 130, 1-(2-(5-chloro-2-(trifluoromethyl)-benzyl)-2,8-diazaspiro[4.5]-decane-8-carbonyl)-4-methyl-1H-pyrazole-3-carboxylic acid]: the IC50 was < 0.1 µM.

On to `CN(Cc1cc(Cl)ccc1C(F)(F)F)CC1CCN(C(=O)n2cc(Cl)c(C(=O)O)n2)CC1` [Example 54, 4-chloro-1-(4-(((5-chloro-2-(trifluoromethyl)-benzyl)(methyl)-amino)-methyl)piperidine-1-carbonyl)-1H-pyrazole-3-carboxylic acid], for which the IC50 was < 0.1 µM.

Consider `O=C(O)c1ccn(C(=O)N2CCC3(CCCN3Cc3ccc(C(F)(F)F)cc3N3CCCC3)CC2)n1` [Example 93, 1-(1-(2-(pyrrolidin-1-yl)-4-(trifluoromethyl)-benzyl)-1,8-diazaspiro[4.5]-decane-8-carbonyl)-1H-pyrazole-3-carboxylic acid], for which the IC50 was < 0.1 µM.

Take `NC(=O)c1ccn(C(=O)N2CCC3(CCN(Cc4cc(Cl)cc(C(F)(F)F)c4)C3)C2)n1` (centres unmarked) [Example 433, 1-(7-(3-chloro-5-(trifluoromethyl)-benzyl)-2,7-diazaspiro[4.4]-nonane-2-carbonyl)-1H-pyrazole-3-carboxamide]: the IC50 was < 0.1 µM.

Regarding `NC(=O)c1ccn(C(=O)N2CCN(Cc3cnccc3C(F)(F)F)CC2)n1` [Example 175, 1-(4-((4-(trifluoromethyl)-pyridin-3-yl)methyl)-piperazine-1-carbonyl)-1H-pyrazole-3-carboxamide], the IC50 was < 0.1 µM.

On to `O=C(O)c1nn(C(=O)N2CCC3(CCN(Cc4cccc(Cl)c4C(F)(F)F)C3)CC2)cc1Cl` [Example 26, 4-Chloro-1-(2-(3-chloro-2-(trifluoromethyl)benzyl)-2,8-diazaspiro[4.5]decane-8-carbonyl)-1H-pyrazole-3-carboxylic Acid], for which the IC50 was < 0.1 µM.

For the compound `O=C(O)c1ccn(C(=O)N2CCN(Cc3ccc(C(F)(F)F)cc3N3CCCCC3)CC2)n1` [Example 100, 1-(4-(2-(piperidin-1-yl)-4-(trifluoromethyl)-benzyl)-piperazine-1-carbonyl)-1H-pyrazole-3-carboxylic acid], the IC50 was < 0.1 µM.

For the compound `O=C(O)c1ccn(C(=O)N2CCC3(CCN(Cc4ccc(C(F)(F)F)cc4Cl)C3)CC2)n1` [Example 77, 1-(2-(2-chloro-4-(trifluoromethyl)-benzyl)-2,8-diazaspiro[4.5]-decane-8-carbonyl)-1H-pyrazole-3-carboxylic acid], the IC50 was < 0.1 µM.

Turning to `O=C(O)c1ccn(C(=O)N2C[C@H]3C[C@H](Oc4cccc(C5CC5)c4)C[C@H]3C2)n1` [Example 219, 1-(trans-5-(3-cyclopropyl-phenoxy)-octahydrocyclopenta-[c]pyrrole-2-carbonyl)-1H-pyrazole-3-carboxylic acid], the concentration for half-maximal inhibition (IC50) is < 0.1 µM.

Consider `C[C@H]1CN(Cc2cccc(Oc3ccc(Cl)cc3)c2)CCN1C(=O)n1ccc(C(=O)O)n1` [Example 311, (S)-1-(4-(3-(4-chlorophenoxy)-benzyl)-2-methylpiperazine-1-carbonyl)-1H-pyrazole-3-carboxylic acid], for which the IC50 is < 0.1 µM.

Take `O=C(O)c1ccn(C(=O)N2CCN(Cc3cccc(C(F)(F)F)c3N3CCOCC3)CC2)n1` [Example 453, 1-(4-(2-morpholino-3-(trifluoromethyl)-benzyl)-piperazine-1-carbonyl)-1H-pyrazole-3-carboxylic acid]: the 50% inhibitory concentration (IC50) is < 0.1 µM.

Consider `Cc1cc(-c2ccccc2)ccc1CN1CCN(C(=O)n2ccc(C(=O)O)n2)CC1` [Example 16, 1-(4-((3-Methyl-[1,1′-biphenyl]-4-yl)methyl)piperazine-1-carbonyl)-1H-pyrazole-3-carboxylic acid], for which the concentration for half-maximal inhibition (IC50) is < 0.1 µM.

On to `NC(=O)c1ccn(C(=O)N2CC3CN(Cc4ccc(C5(C(=O)O)CCOCC5)cc4C(F)(F)F)CC3C2)n1` (centres unmarked) [Example 35, 4-(4-((5-(3-carbamoyl-1H-pyrazole-1-carbonyl)hexahydropyrrolo[3,4-c]pyrrol-2(1H)-yl)methyl)-3-(trifluoromethyl)phenyl)tetrahydro-2H-pyran-4-carboxylic acid], for which the IC50 is < 0.1 µM.

Turning to `Cc1cn(C(=O)N2C[C@H]3C[C@H](OCc4cc(F)cc(Cl)c4)C[C@H]3C2)nc1C(=O)O` [Example 252, 1-(trans-5-((3-chloro-5-fluorobenzyl)oxy)-octahydrocyclopenta-[c]pyrrole-2-carbonyl)-4-methyl-1H-pyrazole-3-carboxylic acid], the IC50 is < 0.1 µM.

With `O=C(O)c1nn(C(=O)N2CCN(Cc3ccc(N4CCCC4)cc3C(F)(F)F)CC2)cc1Cl` [Example 368, 4-chloro-1-(4-(4-(pyrrolidin-1-yl)-2-(trifluoromethyl)-benzyl)piperazine-1-carbonyl)-1H-pyrazole-3-carboxylic acid], the IC50 was < 0.1 µM.

For `Cc1ccc(Oc2cccc(CN3CCN(C(=O)n4ccc(C(=O)O)n4)CC3)c2)cc1` [Example 251, 1-(4-(3-(p-tolyloxy)benzyl)-piperazine-1-carbonyl)-1H-pyrazole-3-carboxylic acid], the IC50 is < 0.1 µM.

As for `C[C@@H]1CC[C@@H](C)N1c1cc(C(F)(F)F)ccc1CN1CCN(C(=O)n2ccc(C(=O)O)n2)CC1` [Example 359, 1-(4-(2-((2R,5R)-2,5-dimethylpyrrolidin-1-yl)-4-(trifluoromethyl)-benzyl)piperazine-1-carbonyl)-1H-pyrazole-3-carboxylic acid], the IC50 was < 0.1 µM.

As to `Cc1cn(C(=O)N2CCN(Cc3cccc(Oc4ccc(Cl)cc4)c3)CC2)nc1C(=O)O` [Example 129, 1-(4-(3-(4-chlorophenoxy)-benzyl)-piperazine-1-carbonyl)-4-methyl-1H-pyrazole-3-carboxylic acid], the IC50 was < 0.1 µM.

As to `Cc1cc(CN2CCCC23CCN(C(=O)n2ccc(C(=O)O)n2)CC3)cc(C(F)(F)F)c1` [Example 303, 1-(1-(3-methyl-5-(trifluoromethyl)-benzyl)-1,8-diazaspiro[4.5]-decane-8-carbonyl)-1H-pyrazole-3-carboxylic acid], the IC50 is < 0.1 µM.

As for `O=C(O)c1ccn(C(=O)N2C[C@H]3C[C@H](Oc4cccc(C(F)(F)F)c4)C[C@H]3C2)n1` [Example 231, 1-(trans-5-(3-(trifluoromethyl)-phenoxy)-octahydrocyclopenta-[c]pyrrole-2-carbonyl)-1H-pyrazole-3-carboxylic acid], the concentration for half-maximal inhibition (IC50) was < 0.1 µM.

For `Cc1c(CO[C@@H]2C[C@@H]3CN(C(=O)n4ccc(C(=O)O)n4)C[C@@H]3C2)cccc1C(F)(F)F` [Example 289, 1-(cis-5-((2-methyl-3-(trifluoromethyl)-benzyl)oxy)-octahydrocyclopenta-[c]pyrrole-2-carbonyl)-1H-pyrazole-3-carboxylic acid], the IC50 was < 0.1 µM.

For the compound `O=C(O)c1ccn(C(=O)N2CCN(Cc3cc(F)cc(Oc4cccc(Cl)c4)c3)CC2)n1` [Example 321, 1-(4-(3-(3-chlorophenoxy)-5-fluorobenzyl)-piperazine-1-carbonyl)-1H-pyrazole-3-carboxylic acid], the IC50 was < 0.1 µM.

Take `O=C(O)c1ccn(C(=O)N2CCC(Oc3cc(N4CCCC4)cc(C(F)(F)F)c3)CC2)n1` [Example 308, 1-(4-(3-(pyrrolidin-1-yl)-5-(trifluoromethyl)-phenoxy)-piperidine-1-carbonyl)-1H-pyrazole-3-carboxylic acid]: the half-inhibitory concentration (IC50) was < 0.1 µM.

Turning to `Cc1c(COC2CCN(C(=O)n3ccc(C(=O)O)n3)CC2)cccc1C(F)(F)F` [Example 235, 1-(4-((2-methyl-3-(trifluoromethyl)-benzyl)oxy)-piperidine-1-carbonyl)-1H-pyrazole-3-carboxylic acid], the half-inhibitory concentration (IC50) is < 0.1 µM.

On to `O=C(O)c1ccn(C(=O)N2C[C@H]3C[C@H](Oc4cccc(N5CCCC5)c4)C[C@H]3C2)n1` [Example 234, 1-(trans-5-(3-(pyrrolidin-1-yl)phenoxy)-octahydrocyclopenta-[c]pyrrole-2-cathonyl)-1H-pyrazole-3-carboxylic acid], for which the IC50 was < 0.1 µM.

As for `O=C(O)c1ccn(C(=O)N2CCN(Cc3ccc(N4CCCC4)cc3C(F)(F)F)CC2)n1` [Example 167, 1-(4-(4-(pyrrolidin-1-yl)-2-(trifluoromethyl)-benzyl)piperazine-1-carbonyl)-1H-pyrazole-3-carboxylic acid], the IC50 was < 0.1 µM.

As to `CNC(=O)c1ccn(C(=O)N2CC3CN(Cc4cc(Cl)cc(C(F)(F)F)c4)CC3C2)n1` (centres unmarked) [Example 437, 1-(5-(3-chloro-5-(trifluoromethyl)-benzyl)-octahydropyrrolo-[3,4-c]pyrrole-2-carbonyl)-N-methyl-1H-pyrazole-3-carboxamide], the half-maximal inhibitory concentration (IC50) was < 0.1 µM.

For the compound `O=C(O)c1ccn(C(=O)N2CCC3(CCN(Cc4cccc(Cl)c4Cl)C3)CC2)n1` [Example 286, 1-(2-(2,3-dichlorobenzyl)-2,8-diazaspiro[4.5]-decane-8-carbonyl)-1H-pyrazole-3-carboxylic acid], the IC50 was < 0.1 µM.

With `O=C(O)c1ccn(C(=O)N2C[C@H]3C[C@H](OCc4cccc(-c5ccccc5)c4)C[C@H]3C2)n1` [Example 278, 1-(trans-5-([1,1′-biphenyl]-3-ylmethoxy)-octahydrocyclopenta-[c]pyrrole-2-carbonyl)-1H-pyrazole-3-carboxylic acid], the IC50 is < 0.1 µM.

Consider `NC(=O)c1ccn(C(=O)N2CCC3(CCN(Cc4cc(Cl)ccc4Cl)C3)C2)n1` (centres unmarked) [Example 426, 1-(7-(2,5-dichlorobenzyl)-2,7-diazaspiro[4.4-]-nonane-2-carbonyl)-1H-pyrazole-3-carboxamide], for which the IC50 is < 0.1 µM.

Take `O=C(O)c1ccn(C(=O)N2CCC(OCc3ccc(Cl)c(C(F)(F)F)c3)CC2)n1` [Example 276, 1-(4-((4-chloro-3-(trifluoromethyl)-benzyl)oxy)-piperidine-1-carbonyl)-1H-pyrazole-3-carboxylic acid]: the IC50 is < 0.1 µM.

For `O=C(O)c1ccn(C(=O)N2C[C@H]3C[C@H](OCc4cccc(C5CCCC5)c4)C[C@H]3C2)n1` [Example 34, 1-(trans-5-((3-Cyclopentylbenzyl)oxy)octahydrocyclopenta[c]pyrrole-2-carbonyl)-1H-pyrazole-3-carboxylic Acid], the IC50 is < 0.1 µM.

A word on the IC50: it is the point on the concentration scale where inhibition reaches its midpoint.

These data come from US10927105B1 (Lundbeck La Jolla Research Center, Inc., priority 2017, dated 2021).
